US6596742B1, “Substituted 3-phenyl-5-alkoxy-1,3,4-oxadiazol-2-ones, their preparation and their use in medicaments” (Aventis Pharma Deutschland GmbH, priority 1999, dated 2003)
pIC50: −log10 of the molar value.

Target: T1, hormone-sensitive lipase HSL (Rattus norvegicus, UniProt P15304)
T1 construct: Isolated rat fat cells are obtained from epididymal fatty tissue from untreated male rats; from tissue; host or cells: fat cells from epididymal fatty tissue of male Wistar rats
T1 sequence (P15304 301-1068 limits assumed): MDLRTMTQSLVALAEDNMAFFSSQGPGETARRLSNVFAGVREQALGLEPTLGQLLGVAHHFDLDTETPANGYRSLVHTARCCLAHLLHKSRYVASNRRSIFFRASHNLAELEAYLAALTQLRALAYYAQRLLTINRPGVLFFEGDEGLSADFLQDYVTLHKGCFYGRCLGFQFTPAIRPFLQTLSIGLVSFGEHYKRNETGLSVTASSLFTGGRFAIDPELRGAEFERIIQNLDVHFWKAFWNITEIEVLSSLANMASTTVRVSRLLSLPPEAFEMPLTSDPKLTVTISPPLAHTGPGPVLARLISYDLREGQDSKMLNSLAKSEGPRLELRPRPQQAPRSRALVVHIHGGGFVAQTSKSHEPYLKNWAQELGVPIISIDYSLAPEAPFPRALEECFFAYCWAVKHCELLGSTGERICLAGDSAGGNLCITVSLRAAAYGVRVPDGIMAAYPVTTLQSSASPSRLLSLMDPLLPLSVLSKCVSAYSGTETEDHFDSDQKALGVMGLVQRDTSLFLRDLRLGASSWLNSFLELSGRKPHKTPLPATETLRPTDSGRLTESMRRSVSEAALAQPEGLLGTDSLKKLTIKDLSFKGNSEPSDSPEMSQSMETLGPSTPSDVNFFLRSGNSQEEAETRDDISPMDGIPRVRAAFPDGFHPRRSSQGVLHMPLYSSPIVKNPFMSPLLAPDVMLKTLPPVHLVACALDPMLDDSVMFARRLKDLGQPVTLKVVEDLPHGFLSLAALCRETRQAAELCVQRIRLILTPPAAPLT
Test: HSL enzyme test system ([3H]trioleoylglycerol hydrolysis)
Type: biochemical
Details: partially purified HSL from rat fat cells; [3H]trioleoylglycerol substrate; 37° C., 30 min
Excerpt: The activity of the compounds of the formula 1 according to the invention was examined using the following enzyme test system:
Isolated rat fat cells are obtained from epididymal fatty tissue from untreated male rats (Wistar, 220-250 g) by collagenase treatment according to published processes (e.g. S. Nilsson et al., Anal. Biochem. 158, 1986, 399-407; G. Fredrikson et al., J. Biol. Chem. 256, 1981, 6311-6320; H. Tornquist et al., J. Biol. Chem. 251, 1976, 813-819). The fat cells from 10 rats are washed three times by flotation with 50 ml each of homogenization buffer ([…] tris/HCI, pH 7.4, 0.25 M sucrose, 1 mM EDTA, 1 mM DTT, 10 μg/ml of leupeptin, 10 μg/ml of antipain, 20 μg/ml of pepstatin) and finally taken up in 10 ml of homogenization buffer. The fat cells are homogenized in a Teflon-in-glass homogenizer (Braun-Melsungen) by 10 strokes at 1500 rpm and 15° C. The homogenizate is centrifuged (Sorvall SM24 tubes, 5000 rpm, 10 min, 4° C). The bottom layer between the overlying fatty layer and the pellet is removed and the centrifugation is repeated. The bottom layer resulting from this is centrifuged again (Sorvall SM24 tubes, 20,000 rpm, 45 min, 4° C). […] After incubation for 60 min at 4° C. (shake at intervals of 15 min), the batch is centrifuged (Sorvall SM24 tubes, 3000 rpm, 10 min, 4° C.). The supernatant is brought to pH 5.2 by addition of glacial acetic acid and incubated at 4° C. for 30 min. The precipitates are collected by centrifugation (Sorvall SS34, 12,000 rpm, 10 min, 4° C.) and suspended in 2.5 ml of 20 mM tris/HCl, pH 7.0, 1 mM EDTA, 65 mM NaCl, 13% sucrose, 1 mM DTT, 10 μg/ml of leupeptin/pepstatin/antipain. The suspension is dialyzed overnight at 4° C. against 25 mM tris/HCl, pH 7.4, 50% glycerol, 1 mM DTT, 10 μg/ml of leupeptin, pepstatin, antipain and then applied to a hydroxylapatite column (0.1 g per 1 ml of suspension, equilibrated with 10 mM potassium phosphate, pH 7.0, 30% glycerol, 1 mM DTT). The column is washed with four volumes of equilibration buffer at a flow rate of 20 to 30 ml/h. The HSL is eluted with a volume of equilibration buffer which contains 0.5 M potassium phosphate, then dialyzed (see above) and concentrated 5 to 10 times by ultrafiltration (Amicon Diaflo PM 10 filter) at 4° C. The partially purified HSL can be stored at −70° C. for 4 to 6 weeks.
For the preparation of the substrate, 25-50 μCi of [^3H]trioleoylglycerol (in toluene), 6.8 μMol of unlabeled trioleoylglycerol and 0.6 mg of phospholipids (phosphatidylcholine/phosphatidylinositol 3:1 w/v) are mixed, dried over N2 and then taken up in 2 ml of 0.1 M KPi (pH 7.0) by ultrasonic treatment (Branson 250, microtip, setting 1-2, 2×1 min at a 1 min interval). After addition of 1 ml KPi and fresh ultrasonic treatment (4×30 sec on ice at 30 sec intervals), 1 ml of 20% BSA (in KPi) is added (final concentration of trioleoylglycerol 1.7 mM). For the reaction, 100 μl of substrate solution are pipetted into 100 μl of HSL solution (HSL prepared as above, diluted in 20 mM KPi, pH 7.0, 1 mM EDTA, 1 mM DTT, 0.02% BSA, 20 μg/ml of pepstatin, 10 μg/ml of leupeptin) and incubated at 37° C. for 30 min. After addition of 3.25 ml of methanol/chloroform/heptane (10:9:7) and of 1.05 ml of 0.1 M K2CO3, 0.1 M boric acid (pH 10.5), the batch is well mixed and finally centrifuged (800×g, 20 min). After phase separation, one equivalent of the upper phase (1 ml) is taken and the radioactivity is determined by liquid scintillation measurement.
Substances are customarily tested in four independent batches. The inhibition of the enzymatic activity of the HSL by a test substance is determined by comparison with an uninhibited control reaction. The IC50 value is calculated by means of an inhibition curve using at least 10 concentrations of the test substance. For the analysis of the data, the software package GRAPHIT, Elsevier-BIOSOFT is used.

Compound | pIC50
CCOc1nn(-c2ccc(S(=O)(=O)N3CCOCC3)cc2)c(=O)o1 [Example 8, 3-(4-Morpholinosulfonylphenyl)-5-ethoxy-1,3,4-oxadiazol-2-one] | 4.82
COc1nn(-c2ccc(OC(F)(F)F)cc2)c(=O)o1 [Example 10, 3-(4-Trifluoromethoxyphenyl)-5-methoxy-1,3,4-oxad iazol-2-one] | 5.22
CCOc1nn(-c2ccc(OC(F)(F)F)cc2)c(=O)o1 [Example 11, 3-(4-Trifluoromethoxyphenyl)-5-ethoxy-1,3,4-oxadiazol-2-one] | 5.00
CC(C)Oc1nn(-c2ccc(OC(F)(F)F)cc2)c(=O)o1 [Example 12, 3-(4-Trifluoromethoxyphenyl)-5-isopropoxy-1,3,4-oxadiazol-2-one] | 5.00
CCCCOc1nn(-c2ccc(OC(F)(F)F)cc2)c(=O)o1 [Example 13, 3-(4-Trifluoromethoxyphenyl)-5-butoxy-1,3,4-oxadiazol-2-one] | 5.00
O=c1oc(OCc2ccccc2)nn1-c1ccc(OC(F)(F)F)cc1 [Example 14, 3-(4-Trifluoromethoxyphenyl)-5-benzyloxy-1,3,4-oxad iazol-2-one] | 4.30
COc1nn(-c2ccc(S(=O)(=O)NC3CC(C)CC(C)(C)C3)cc2)c(=O)o1 (stereo not shown) [Example 15, 3-(4-(3,3,5-Trimethylcyclohexylaminosulfonyl)phenyl)-5-methoxy-1,3,4-oxadiazol-2-one] | 5.70
CCOc1nn(-c2ccc(OC3CC(C)(C)CC(C)(C)C3)cc2)c(=O)o1 [Example 16, 3-(4-(3,3,5,5-Tetramethylcyclohexyloxy)phenyl)-5-ethoxy-1,3,4-oxadiazol-2-one] | 5.70
COc1nn(-c2cccc(OCc3ccccc3)c2)c(=O)o1 [Example 17, 3-(3-Benzyloxyphenyl)-5-methoxy-1,3,4-oxadiazol-2-one] | 5.70
CCOc1nn(-c2cccc(OCc3ccccc3)c2)c(=O)o1 [Example 18, 3-(3-Benzyloxyphenyl)-5-ethoxy-1,3,4-oxadiazol-2-one] | > 6.00
CCOc1nn(-c2cccc(OC(F)(F)F)c2)c(=O)o1 [Example 19, 3-(3-Trifluoromethoxyphenyl)-5-ethoxy-1,3,4-oxadiazol-2-one] | 5.30
COc1nn(-c2cccc(Oc3ccccc3)c2)c(=O)o1 [Example 33, 3-(3-Phenoxyphenyl)-5-methoxy-1,3,4-oxadiazol-2-one] | 5.40
CCOc1nn(-c2cccc(Oc3ccccc3)c2)c(=O)o1 [Example 34, 3-(3-Phenoxyphenyl)-5-ethoxy-1,3,4-oxadiazol-2-one] | 5.52
CC(C)Oc1nn(-c2cccc(Oc3ccccc3)c2)c(=O)o1 [Example 35, 3-(3-Phenoxyphenyl)-5-isopropoxy-1,3,4-oxadiazol-2-one] | 5.52
COc1nn(-c2ccc(Oc3ccccc3)cc2)c(=O)o1 [Example 36, 3-(4-Phenoxyphenyl)-5-methoxy-1,3,4-oxadiazol-2-one] | 5.70
COc1nn(-c2ccc(C3CCCCC3)cc2)c(=O)o1 [Example 37, 3-(4-Cyclohexylphenyl)-5-methoxy-1,3,4-oxadiazol-2-one] | 5.52
COc1nn(-c2cccc(OC3CC(C)(C)CC(C)(C)C3)c2)c(=O)o1 [Example 38, 3-(3-(3,3,5,5-Tetramethylcyclohexyloxy)phenyl)-5-methoxy-1,3,4-oxadiazol-2-one] | > 6.00
COc1nn(-c2ccc(-c3ccccc3)cc2)c(=O)o1 [Example 39, 3-(4-Phenylphenyl)-5-methoxy-1,3,4-oxadiazol-2-one] | 4.22

Tested on: not given
Test: not given
Details: not given

Compound | melting point [°C]
CC(C)Oc1nn(-c2cccc(Oc3ccccc3)c2)c(=O)o1 [Example 35, 3-(3-Phenoxyphenyl)-5-isopropoxy-1,3,4-oxadiazol-2-one] | 58
